Like-named read-outs stand apart in the source and are kept apart here.
Experiments:
Assay type in all cases: biochemical
PDE1A = PDE1A (Homo sapiens (Human), UniProt P54750); test: biochemical
Text: (§1) Table 1 lists the IC50 value for inhibition of PDE1 by the compounds of the invention. […] PDE1 assays are described in the Experimental Section.

PDE1C = PDE1C (Homo sapiens (Human), UniProt Q14123); test: biochemical
Text: as §1

PDE1B = PDE1B (Homo sapiens (Human), UniProt Q01064); test: PDE1 inhibition assay (PDE1B); conditions: 15 nM tritium labelled cAMP, 1 hr at room temperature, SPA beads
Chain of PDE1B (Q01064 whole entry): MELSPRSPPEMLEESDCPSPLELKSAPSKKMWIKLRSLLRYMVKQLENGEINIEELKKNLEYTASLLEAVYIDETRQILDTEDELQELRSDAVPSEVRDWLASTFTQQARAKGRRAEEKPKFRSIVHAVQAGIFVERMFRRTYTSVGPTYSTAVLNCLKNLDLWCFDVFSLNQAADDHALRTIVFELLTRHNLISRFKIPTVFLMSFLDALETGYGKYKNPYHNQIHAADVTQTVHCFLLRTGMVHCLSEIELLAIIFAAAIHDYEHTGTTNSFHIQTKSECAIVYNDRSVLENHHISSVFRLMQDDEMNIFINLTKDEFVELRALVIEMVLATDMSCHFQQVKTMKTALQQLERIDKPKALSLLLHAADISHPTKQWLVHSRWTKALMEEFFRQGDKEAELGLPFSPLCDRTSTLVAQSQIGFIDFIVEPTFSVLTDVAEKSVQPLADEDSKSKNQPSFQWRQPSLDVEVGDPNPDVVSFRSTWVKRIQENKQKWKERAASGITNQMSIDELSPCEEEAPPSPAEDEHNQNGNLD
Text: as §1

[1] = 15 nM tritium labelled cAMP, 1 hr at room temperature, SPA beads

Chain of PDE1C (Q14123 whole entry): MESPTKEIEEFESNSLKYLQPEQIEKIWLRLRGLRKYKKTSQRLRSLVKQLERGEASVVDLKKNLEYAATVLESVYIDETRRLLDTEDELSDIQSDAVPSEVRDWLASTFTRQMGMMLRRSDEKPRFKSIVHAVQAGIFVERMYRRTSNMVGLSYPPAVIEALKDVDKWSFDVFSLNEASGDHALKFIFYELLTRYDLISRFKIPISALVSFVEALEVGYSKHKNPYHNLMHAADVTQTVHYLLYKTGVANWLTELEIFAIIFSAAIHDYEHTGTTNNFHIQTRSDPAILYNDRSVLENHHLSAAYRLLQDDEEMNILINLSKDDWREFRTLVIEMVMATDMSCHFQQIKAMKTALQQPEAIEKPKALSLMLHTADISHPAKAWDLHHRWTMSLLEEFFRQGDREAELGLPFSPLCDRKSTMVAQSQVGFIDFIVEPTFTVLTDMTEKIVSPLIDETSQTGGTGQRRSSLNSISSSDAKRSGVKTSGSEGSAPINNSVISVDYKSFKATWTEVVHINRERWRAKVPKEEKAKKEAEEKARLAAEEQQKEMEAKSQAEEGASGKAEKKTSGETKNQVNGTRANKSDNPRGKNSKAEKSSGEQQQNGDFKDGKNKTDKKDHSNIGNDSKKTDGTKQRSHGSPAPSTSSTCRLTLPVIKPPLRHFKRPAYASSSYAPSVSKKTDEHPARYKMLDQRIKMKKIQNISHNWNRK
Chain of PDE1A (P54750 whole entry): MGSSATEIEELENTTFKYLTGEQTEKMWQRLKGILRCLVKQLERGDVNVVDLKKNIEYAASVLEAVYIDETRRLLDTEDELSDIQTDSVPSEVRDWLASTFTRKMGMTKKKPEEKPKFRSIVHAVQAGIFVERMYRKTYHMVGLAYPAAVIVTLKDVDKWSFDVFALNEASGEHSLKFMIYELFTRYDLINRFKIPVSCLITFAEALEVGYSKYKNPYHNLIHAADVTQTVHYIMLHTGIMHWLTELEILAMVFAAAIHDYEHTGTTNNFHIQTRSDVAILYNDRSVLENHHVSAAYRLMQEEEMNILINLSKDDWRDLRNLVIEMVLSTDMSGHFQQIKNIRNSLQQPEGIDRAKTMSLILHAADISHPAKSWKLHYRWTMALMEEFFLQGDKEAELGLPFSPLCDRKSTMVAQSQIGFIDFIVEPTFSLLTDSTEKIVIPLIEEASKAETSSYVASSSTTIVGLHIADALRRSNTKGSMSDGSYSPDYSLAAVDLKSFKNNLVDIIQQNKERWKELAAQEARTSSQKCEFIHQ

## CCOc1ncccc1-c1cc(NCc2c[nH]c(C)n2)c2c(n1)c(C)nn2C(C)C [Example 46, 5-(2-ethoxypyridin-3-yl)-1-isopropyl-3-methyl-N-((2-methyl-1H-imidazol-4-yl)methyl)-1H-pyrazolo[4,3-b]pyridin-7-amine]
PDE1A; [1]
  IC50: 5 nM
PDE1C; [1]
  IC50: 9.7 nM
PDE1B; read-out: PDE1B, IC50
  IC50: 0.42 nM

## Cc1ncoc1-c1cc(NCc2cnn(C)c2)c2c(n1)c(C)nn2C(C)C [Example 200, 1-isopropyl-3-methyl-N-((1-methyl-1H-pyrazol-4-yl)methyl)-5-(4-methyloxazol-5-yl)-1H-pyrazolo[4,3-b]pyridin-7-amine]
PDE1A; [1]
  IC50: 98 nM
PDE1C; [1]
  IC50: 110 nM
PDE1B; read-out: PDE1B, IC50
  IC50: 18 nM

## Cc1nn(C(C)C)c2c(NCc3cnn(C)c3)cc(-c3cnnn3C)nc12 [Example 169, 1-isopropyl-3-methyl-N-[(1-methylpyrazol-4-yl)methyl]-5-(3-methyltriazol-4-yl)pyrazolo[4,3-b]pyridin-7-amine]
PDE1A; [1]
  IC50: 610 nM
PDE1C; [1]
  IC50: 170 nM
PDE1B; read-out: PDE1B, IC50
  IC50: 85 nM

## CCOc1ncccc1-c1cc(NCc2nc(C)no2)c2c(n1)c(C)nn2C(C)C [Example 30, 5-(2-ethoxy-3-pyridyl)-1-isopropyl-3-methyl-N-[(3-methyl-1,2,4-oxadiazol-5-yl)methyl]pyrazolo[4,3-b]pyridin-7-amine]
PDE1A; [1]
  IC50: 15 nM
PDE1C; [1]
  IC50: 31 nM
PDE1B; read-out: PDE1B, IC50
  IC50: 1.3 nM

## CCOc1ncccc1-c1cc(NCc2nccn2C)c2c(cnn2C(C)C)n1 [Example 17, 5-(2-ethoxy-3-pyridyl)-1-isopropyl-N-[(1-methylimidazol-2-yl)methyl]pyrazolo[4,3-b]pyridin-7-amine]
PDE1A; [1]
  IC50: 700 nM
PDE1C; [1]
  IC50: 970 nM
PDE1B; read-out: PDE1B, IC50
  IC50: 54 nM

## CCOc1ncccc1CNc1cc(-c2cccnc2OCC)nc2c(C)nn(C(C)C)c12 [Example 191, 5-(2-ethoxy-3-pyridyl)-N-[(2-ethoxy-3-pyridyl)methyl]-1-isopropyl-3-methyl-pyrazolo[4,3-b]pyridin-7-amine]
PDE1A; [1]
  IC50: 160 nM
PDE1C; [1]
  IC50: 400 nM
PDE1B; read-out: PDE1B, IC50
  IC50: 10 nM

## CCOc1ncccc1-c1cc(NCc2cnc(C)s2)c2c(n1)c(C)nn2C(C)C [Example 32, 5-(2-ethoxy-3-pyridyl)-1-isopropyl-3-methyl-N-[(2-methylthiazol-5-yl)methyl]pyrazolo[4,3-b]pyridin-7-amine]
PDE1A; [1]
  IC50: 4.6 nM
PDE1C; [1]
  IC50: 6.2 nM
PDE1B; read-out: PDE1B, IC50
  IC50: 0.14 nM

## CCOc1ncccc1-c1cc(NCc2cccnc2OC)c2c(n1)c(C)nn2C(C)C [Example 86, 5-(2-ethoxy-3-pyridyl)-1-isopropyl-N-[(2-methoxy-3-pyridyl)methyl]-3-methyl-pyrazolo[4,3-b]pyridin-7-amine]
PDE1A; [1]
  IC50: 20 nM
PDE1C; [1]
  IC50: 68 nM
PDE1B; read-out: PDE1B, IC50
  IC50: 0.36 nM

## Cc1nocc1-c1cc(NCc2cnn(C)c2)c2c(n1)c(C)nn2C(C)C [Example 194, 1-isopropyl-3-methyl-5-(3-methylisoxazol-4-yl)-N-[(1-methylpyrazol-4-yl)methyl]pyrazolo[4,3-b]pyridin-7-amine]
PDE1A; [1]
  IC50: 95 nM
PDE1C; [1]
  IC50: 21 nM
PDE1B; read-out: PDE1B, IC50
  IC50: 23 nM

## CCOc1ncccc1-c1cc(NCc2ncc(C)s2)c2c(n1)c(C)nn2C(C)C [Example 2, 5-(2-ethoxy-3-pyridyl)-1-isopropyl-3-methyl-N-[(5-methylthiazol-2-yl)methyl]pyrazolo[4,3-b]pyridin-7-amine]
PDE1A; [1]
  IC50: 0.46 nM
PDE1C; [1]
  IC50: 4.9 nM
PDE1B; read-out: PDE1B, IC50
  IC50: 0.071 nM

## CCOc1ncccc1-c1cc(NCc2cc[nH]n2)c2c(cnn2C(C)C)n1 [Example 57, 5-(2-ethoxy-3-pyridyl)-1-isopropyl-N-(1H-pyrazol-3-ylmethyl)pyrazolo[4,3-b]pyridin-7-amine]
PDE1A; [1]
  IC50: 98 nM
PDE1C; [1]
  IC50: 170 nM
PDE1B; read-out: PDE1B, IC50
  IC50: 4.8 nM

## CCOc1ncccc1-c1cc(NCc2cccc(C)n2)c2c(n1)c(C)nn2C(C)C [Example 101, 5-(2-ethoxy-3-pyridyl)-1-isopropyl-3-methyl-N-[(6-methyl-2-pyridyl)methyl]pyrazolo[4,3-b]pyridin-7-amine]
PDE1A; [1]
  IC50: 20 nM
PDE1C; [1]
  IC50: 43 nM
PDE1B; read-out: PDE1B, IC50
  IC50: 0.9 nM

## Cc1nn(C(C)C)c2c(NCc3cnn(C)c3)cc(-c3ccc[nH]c3=O)nc12 [Example 177, 3-[1-isopropyl-3-methyl-7-[(1-methylpyrazol-4-yl)methylamino]pyrazolo[4,3-b]pyridin-5-yl]-1H-pyridin-2-one]
PDE1A; [1]
  IC50: 130 nM
PDE1C; [1]
  IC50: 180 nM
PDE1B; read-out: PDE1B, IC50
  IC50: 20 nM

## CCCOc1ncccc1-c1cc(NCc2cnn(C)c2)c2c(n1)c(C)nn2C(C)C [Example 94, 1-isopropyl-3-methyl-N-[(1-methylpyrazol-4-yl)methyl]-5-(2-propoxy-3-pyridyl)pyrazolo[4,3-b]pyridin-7-amine]
PDE1A; [1]
  IC50: 1.4 nM
PDE1C; [1]
  IC50: 4.9 nM
PDE1B; read-out: PDE1B, IC50
  IC50: 0.065 nM

## CCOc1ncccc1-c1cc(NCc2cn(C)nn2)c2c(n1)c(C)nn2C(C)C [Example 6, 5-(2-ethoxy-3-pyridyl)-1-isopropyl-3-methyl-N-[(1-methyltriazol-4-yl)methyl]pyrazolo[4,3-b]pyridin-7-amine]
PDE1A; [1]
  IC50: 4.8 nM
PDE1C; [1]
  IC50: 5.6 nM
PDE1B; read-out: PDE1B, IC50
  IC50: 0.22 nM

## CCOc1ncccc1-c1cc(NCc2cnccc2OC)c2c(n1)c(C)nn2C(C)C [Example 92, 5-(2-ethoxy-3-pyridyl)-1-isopropyl-N-[(4-methoxy-3-pyridyl)methyl]-3-methyl-pyrazolo[4,3-b]pyridin-7-amine]
PDE1A; [1]
  IC50: 47 nM
PDE1C; [1]
  IC50: 110 nM
PDE1B; read-out: PDE1B, IC50
  IC50: 2.7 nM

## CCOc1ncccc1-c1cc(NCc2ccn(C)n2)c2c(n1)c(C)nn2C(C)C [Example 60, 5-(2-ethoxy-3-pyridyl)-1-isopropyl-3-methyl-N-[(1-methylpyrazol-3-yl)methyl]pyrazolo[4,3-b]pyridin-7-amine]
PDE1A; [1]
  IC50: 6.5 nM
PDE1C; [1]
  IC50: 12 nM
PDE1B; read-out: PDE1B, IC50
  IC50: 0.59 nM

## CCOc1ncccc1-c1cc(NCc2ccc(C(F)F)nc2)c2c(n1)c(C)nn2C(C)C [Example 117, N-[[6-(difluoromethyl)-3-pyridyl]methyl]-5-(2-ethoxy-3-pyridyl)-1-isopropyl-3-methyl-pyrazolo[4,3-b]pyridin-7-amine]
PDE1A; [1]
  IC50: 18 nM
PDE1C; [1]
  IC50: 26 nM
PDE1B; read-out: PDE1B, IC50
  IC50: 2.3 nM

## CCCOc1ncccc1-c1cc(NCc2ncn(C)n2)c2c(n1)c(C)nn2C(C)CC (single isomer, unassigned) [Example 134, 3-methyl-1-[1-methylpropyl]-N-[(1-methyl-1,2,4-triazol-3-yl)methyl]-5-(2-propoxy-3-pyridyl)pyrazolo[4,3-b]pyridin-7-amine]
PDE1A; [1]
  IC50: 0.96 nM
PDE1C; [1]
  IC50: 1.5 nM
PDE1B; PDE1B, IC50 (nM)
  IC50: 0.12 nM

## Cc1nn(C(C)C)c2c(NCc3cnn(C)c3)cc(-c3cccn(C)c3=O)nc12 [Example 49, 3-(1-isopropyl-3-methyl-7-(((1-methyl-1H-pyrazol-4-yl)methyl)amino)-1H-pyrazolo[4,3-b]pyridin-5-yl)-1-methylpyridin-2(1H)-one]
PDE1C; [1]
  IC50: 420 nM
PDE1B; read-out: PDE1B, IC50
  IC50: 20 nM

## CCOc1ncccc1-c1cc(NCc2cnn(C(F)F)c2)c2c(n1)c(C)nn2C(C)C [Example 165, N-[[1-(difluoromethyl)pyrazol-4-yl]methyl]-5-(2-ethoxy-3-pyridyl)-1-isopropyl-3-methyl-pyrazolo[4,3-b]pyridin-7-amine]
PDE1A
  IC50: 73 nM
PDE1B; PDE1B, IC50 (nM)
  IC50: 5.9 nM

## CCOc1ncccc1-c1cc(NCc2ncn(C)n2)c2c(n1)c(C)nn2C(C)CC (single isomer, unassigned) [Example 121, 5-(2-ethoxy-3-pyridyl)-3-methyl-1-[1-methylpropyl]-N-[(1-methyl-1,2,4-triazol-3-yl)methyl]pyrazolo[4,3-b]pyridin-7-amine]
PDE1B; PDE1B, IC50 (nM)
  IC50: 0.47 nM

## CCOc1ncccc1-c1cc(NCc2nc[nH]n2)c2c(n1)c(C)nn2C(C)C [Example 98, 5-(2-ethoxy-3-pyridyl)-1-isopropyl-3-methyl-N-(1H-1,2,4-triazol-3-ylmethyl)pyrazolo[4,3-b]pyridin-7-amine]
PDE1C; [1]
  IC50: 21 nM
PDE1B; read-out: PDE1B, IC50
  IC50: 0.58 nM

## CCOc1ncccc1-c1cc(NCc2cncc(OC)c2)c2c(n1)c(C)nn2C(C)CC (single isomer, unassigned; enantiomer 2) [Example 125, 5-(2-ethoxy-3-pyridyl)-N-[(5-methoxy-3-pyridyl)methyl]-3-methyl-1-[1-methylpropyl]pyrazolo[4,3-b]pyridin-7-amine, enantiomer 2]
PDE1B; PDE1B, IC50 (nM)
  IC50: 0.32 nM

## CCOc1ncccc1-c1cc(NCc2nc(C)co2)c2c(n1)c(C)nn2C(C)C [Example 50, 5-(2-ethoxypyridin-3-yl)-1-isopropyl-3-methyl-N-((4-methyloxazol-2-yl)methyl)-1H-pyrazolo[4,3-b]pyridin-7-amine 2,2,2-trifluoroacetate]
PDE1A; [1]
  IC50: 9 nM
PDE1B; read-out: PDE1B, IC50
  IC50: 0.5 nM

## Cc1sccc1-c1cc(NCc2cnn(C)c2)c2c(n1)c(C)nn2C(C)C [Example 65, 1-isopropyl-3-methyl-N-[(1-methylpyrazol-4-yl)methyl]-5-(2-methyl-3-thienyl)pyrazolo[4,3-b]pyridin-7-amine]
PDE1A; [1]
  IC50: 7.9 nM
PDE1B; read-out: PDE1B, IC50
  IC50: 1.2 nM

## CCOc1ncccc1-c1cc(NCc2nnn(C)n2)c2c(n1)c(C)nn2C(C)CC (single isomer, unassigned) [Example 127, 5-(2-ethoxy-3-pyridyl)-3-methyl-1-[1-methylpropyl]-N-[(2-methyltetrazol-5-yl)methyl]pyrazolo[4,3-b]pyridin-7-amine]
PDE1B; PDE1B, IC50 (nM)
  IC50: 0.31 nM

## Cc1nn(C(C)C)c2c(NCc3cnn(C)c3)cc(-c3cccnc3N(C)C)nc12 [Example 201, 5-[2-(dimethylamino)-3-pyridyl]-1-isopropyl-3-methyl-N-[(1-methylpyrazol-4-yl)methyl]pyrazolo[4,3-b]pyridin-7-amine]
PDE1B; read-out: PDE1B, IC50
  IC50: 230 nM

## CCOc1ncccc1-c1cc(NCc2cc[nH]n2)c2c(n1)c(C)nn2C(C)CC (single isomer, unassigned) [Example 119, 5-(2-ethoxy-3-pyridyl)-3-methyl-1-[1-methylpropyl]-N-(1H-pyrazol-3-ylmethyl)pyrazolo[4,3-b]pyridin-7-amine]
PDE1C
  IC50: 29 nM
PDE1B; PDE1B, IC50 (nM)
  IC50: 0.56 nM
